Source: PubChem BioAssay AID2060340 (Molecular Pharmacology Branch, DTP, NCI, 2025)
Values joined by “and” are separate entries in the source; they are usually repeats but may differ in a detail not shown here. Identical values can stand only once.

Test system: 349418-098-R-PDC spheroids, viability, % test/control
Assay: Anticancer human tumor 349418-098-R-PDC patient-derived lung adenocarcinoma cell line growth inhibition [IpAb]
Conditions: spheroids with HUVEC and MSC; for IC50: curve of first compound; for viability, T/C: stronger effect = lower value
Source text: Combinatorial screen of targeted agents with ipatasertib and abemaciclib in multi-cell type tumor spheroids
A high-throughput screen of multi-cell type tumor spheroids was designed to identify active combinations of targeted small molecules and ipatasertib or abemaciclib. Complex spheroids include a stromal component modeled by human endothelial cells (HUVEC) and fibroblasts modeled by human mesenchymal stem cells (MSCs). The concentration ranges selected for each drug and investigational agent were based upon clinically achievable concentrations if the clinical Cmax of the agent was known.
Compounds. The drugs and investigational agents: ipatasertib (NSC767898), abemaciclib(NSC768073), selumetinib (NSC741078), trametinib (758246), adavosertib (NSC754352), everolimus (NSC733504), sapanisertib (NSC764658), vemurafenib (NSC761431), venetoclax (NSC766270), copanlisib (NSC809693), apelisib (NSC765974), palbociblib (NSC758247), vemurafenib (NSC761431), dabrafenib (NSC764134), ravoxertinib (NSC781343), BMS-387032 (NSC767048), sotorasib (NSC818433), talazoparib (NSC767125) and afursertib (NSC778305), were obtained from the National Cancer Institute (NCI) Developmental Therapeutics Program Chemical Repository. The FDA-approved anticancer drug set is available from the NCI Developmental Therapeutics Program. […] The stock solutions were prepared in dimethyl sulfoxide (DMSO, Sigma-Aldrich, St. Louis, MO, cat. D2650) at 800-fold the tested concentration and stored at -70 degrees C prior to their use. All drugs and investigational agents were tested over a range starting from a high concentration at or near the clinical Cmax and decreasing in half-log increments. If the clinical Cmax for an agent had not been determined, the highest concentration tested was 10 microM.
NCI60 Cell Culture. NCI60 cell lines were obtained from the NCI Developmental Therapeutics Program Tumor Repository. For each lot of cells, the Repository performed Applied Biosystems AmpFLSTR Identifiler testing with PCR amplification to confirm consistency with the published Identifier STR profile for each cell line. Cells were kept in continuous culture for no more than 20 passages. The optimal seeding densities for each of the cell lines at each time point assessed were determined prior to performing the concentration response studies. Briefly, the NCI60 human tumor lines were grown as monolayers in RPMI 1640 medium supplemented with 10% FBS and 2 mmol/L L-glutamine.
An additional 9 lines were from the NCI60 cell line panel including MDA-MB-231 breast carcinoma, MDA-MB-468 breast carcinoma, MCF7 breast carcinoma, Hs578T breast carcinoma, MALME-3M melanoma, SK-MEL-2 melanoma, SK-OV-3 ovarian carcinoma, DU-145 prostate carcinoma, PC-3 prostate carcinoma, all cell lines along with major genetic alterations are listed on Table 2. Pooled donor human umbilical vein endothelial cells (HUVEC, Lonza, cat. CC-2519) and human mesenchymal stem cells (hMSC, Lonza, cat. PT-2501) were purchased from Lonza (Walkersville, MD).
PDMR cell lines were grown in complete medium (DC medium): Dulbecco's modified Eagle's medium (DMEM)/F12 supplemented with 5% fetal bovine serum (FBS), 2 mM L-glutamine, 100 U/mL penicillin and 100 µg/ml streptomycin, 0.4 µg/ml hydrocortisone, 10 ng/ml epidermal growth factor (EGF) recombinant human protein, 24 µg/mL adenine, and 0.1 mg/mL primocin. During culture from frozen stock vials, PDMR cells were cultured in the same medium containing 10 µM Y-27632 (see Table 3). The PDCs were cultured in complete DMEM/F12 media without 10 microM Y-27632 dihydrochloride for at least two passages prior to the screen. The pooled donor HUVEC and hMSC were cultured in endothelial cell growth medium 2 (PromoCell, Heidelberg, Germany, cat. C-22011) and mesenchymal stem cell growth medium 2 (PromoCell, cat. C-28009), respectively. For all experiments, HUVEC and hMSC were used at passages </=5.
[…]

[1] = second compound 0.1 µM, first compound 0.0316 µM
[2] = second compound 0.1 µM, first compound 0.1 µM
[3] = second compound 0.316 µM, first compound 0.0316 µM
[4] = second compound 0.316 µM, first compound 0.1 µM
[5] = second compound 1 µM, first compound 0.0316 µM
[6] = second compound 1 µM, first compound 0.1 µM
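Note: spheroids exposed to compounds for 7 days.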

Q: `Cn1ncnc1[C@H]1c2n[nH]c(=O)c3cc(F)cc(c23)N[C@@H]1c1ccc(F)cc1` + CCN1CCN(Cc2ccc(Nc3ncc(F)c(-c4cc(F)c5nc(C)n(C(C)C)c5c4)n3)nc2)CC1 was tested. Which IC50 (second compound 0.01 µM) did it give?
A: 54.1 nM

Q: And the IC50 (second compound 0.0316 µM)?
A: < 0.316 nM

Q: What about the IC50 (second compound 0.1 µM) of the same molecule?
A: < 0.316 nM

Q: What about the IC50 (second compound 0.316 µM) of the same molecule?
A: < 0.316 nM

Q: And the IC50 (second compound 1 µM)?
A: < 0.316 nM

Q: And the viability, T/C (second compound 0.01 µM, first compound 0.000316 µM)?
A: 70.5%

Q: What about the viability, T/C (second compound 0.01 µM, first compound 0.001 µM) of the same molecule?
A: 67.8%

Q: And the viability, T/C (second compound 0.01 µM, first compound 0.00316 µM)?
A: 73.1%

Q: And the viability, T/C (second compound 0.01 µM, first compound 0.01 µM)?
A: 64%

Q: What about the viability, T/C (second compound 0.01 µM, first compound 0.0316 µM) of the same molecule?
A: 55.2%

Q: And the viability, T/C (second compound 0.01 µM, first compound 0.1 µM)?
A: 44.5%

Q: What about the viability, T/C (second compound 0.0316 µM, first compound 0.000316 µM) of the same molecule?
A: 38.7%

Q: And the viability, T/C (second compound 0.0316 µM, first compound 0.001 µM)?
A: 50.5%

Q: And the viability, T/C (second compound 0.0316 µM, first compound 0.00316 µM)?
A: 52.7%

Q: What about the viability, T/C (second compound 0.0316 µM, first compound 0.01 µM) of the same molecule?
A: 36%

Q: And the viability, T/C (second compound 0.0316 µM, first compound 0.0316 µM)?
A: 36.5%

Q: What about the viability, T/C (second compound 0.0316 µM, first compound 0.1 µM) of the same molecule?
A: 25.2%

Q: And the viability, T/C (second compound 0.1 µM, first compound 0.000316 µM)?
A: 28.1%

Q: What about the viability, T/C (second compound 0.1 µM, first compound 0.001 µM) of the same molecule?
A: 22.9%

Q: And the viability, T/C (second compound 0.1 µM, first compound 0.00316 µM)?
A: 23.9%

Q: And the viability, T/C (second compound 0.1 µM, first compound 0.01 µM)?
A: 23.2%

Q: And the viability, T/C [1]?
A: 17.5%

Q: And the viability, T/C [2]?
A: 16.4%

Q: What about the viability, T/C (second compound 0.316 µM, first compound 0.000316 µM) of the same molecule?
A: 14.6%

Q: What about the viability, T/C (second compound 0.316 µM, first compound 0.001 µM) of the same molecule?
A: 19.8%

Q: What about the viability, T/C (second compound 0.316 µM, first compound 0.00316 µM) of the same molecule?
A: 16.2%

Q: What about the viability, T/C (second compound 0.316 µM, first compound 0.01 µM) of the same molecule?
A: 17.8%

Q: And the viability, T/C [3]?
A: 16.9%

Q: And the viability, T/C [4]?
A: 13.1%

Q: And the viability, T/C (second compound 1 µM, first compound 0.000316 µM)?
A: 16.2%

Q: And the viability, T/C (second compound 1 µM, first compound 0.001 µM)?
A: 17.6%

Q: What about the viability, T/C (second compound 1 µM, first compound 0.00316 µM) of the same molecule?
A: 16.2%

Q: And the viability, T/C (second compound 1 µM, first compound 0.01 µM)?
A: 13%

Q: What about the viability, T/C [5] of the same molecule?
A: 14.9%

Q: What about the viability, T/C [6] of the same molecule?
A: 12.8%

Q: For `C=CCn1c(=O)c2cnc(Nc3ccc(N4CCN(C)CC4)cc3)nc2n1-c1cccc(C(C)(C)O)n1` + CC(C)NCC(C(=O)N1CCN(c2ncnc3c2C(C)CC3O)CC1)c1ccc(Cl)cc1, which IC50 (second compound 0.1 µM) is on record?
A: 154 nM

Q: And the IC50 (second compound 0.316 µM)?
A: 84.5 nM

Q: What about the IC50 (second compound 1 µM) of the same molecule?
A: < 31.6 nM

Q: And the IC50 (second compound 3.16 µM)?
A: < 31.6 nM

Q: And the IC50 (second compound 10 µM)?
A: < 31.6 nM

Q: What about the viability, T/C [1] of the same molecule?
A: 96.2%

Q: And the viability, T/C [2]?
A: 73%

Q: And the viability, T/C (second compound 0.1 µM, first compound 0.316 µM)?
A: 11.5%

Q: And the viability, T/C (second compound 0.1 µM, first compound 1 µM)?
A: 4.54%

Q: What about the viability, T/C (second compound 0.1 µM, first compound 3.16 µM) of the same molecule?
A: 4.88%

Q: And the viability, T/C (second compound 0.1 µM, first compound 10 µM)?
A: 5.17%

Q: What about the viability, T/C [3] of the same molecule?
A: 82%

Q: What about the viability, T/C [4] of the same molecule?
A: 44.5%

Q: What about the viability, T/C (second compound 0.316 µM, first compound 0.316 µM) of the same molecule?
A: 7.25%

Q: And the viability, T/C (second compound 0.316 µM, first compound 1 µM)?
A: 4.35%

Q: What about the viability, T/C (second compound 0.316 µM, first compound 3.16 µM) of the same molecule?
A: 4.32%

Q: What about the viability, T/C (second compound 0.316 µM, first compound 10 µM) of the same molecule?
A: 4.08%

Q: And the viability, T/C [5]?
A: 29.7%

Q: What about the viability, T/C [6] of the same molecule?
A: 22.2%

Q: And the viability, T/C (second compound 1 µM, first compound 0.316 µM)?
A: 5.45%

Q: And the viability, T/C (second compound 1 µM, first compound 1 µM)?
A: 3.39%

Q: What about the viability, T/C (second compound 1 µM, first compound 3.16 µM) of the same molecule?
A: 3.96%

Q: And the viability, T/C (second compound 1 µM, first compound 10 µM)?
A: 3.54%

Q: What about the viability, T/C (second compound 3.16 µM, first compound 0.0316 µM) of the same molecule?
A: 15.3%

Q: What about the viability, T/C (second compound 3.16 µM, first compound 0.1 µM) of the same molecule?
A: 12.3%

Q: And the viability, T/C (second compound 3.16 µM, first compound 0.316 µM)?
A: 4.49%

Q: And the viability, T/C (second compound 3.16 µM, first compound 1 µM)?
A: 2.96%

Q: And the viability, T/C (second compound 3.16 µM, first compound 3.16 µM)?
A: 3.95%

Q: What about the viability, T/C (second compound 3.16 µM, first compound 10 µM) of the same molecule?
A: 3.35%

Q: What about the viability, T/C (second compound 10 µM, first compound 0.0316 µM) of the same molecule?
A: 9.2%

Q: And the viability, T/C (second compound 10 µM, first compound 0.1 µM)?
A: 7.89%

Q: What about the viability, T/C (second compound 10 µM, first compound 0.316 µM) of the same molecule?
A: 4.37%

Q: And the viability, T/C (second compound 10 µM, first compound 1 µM)?
A: 2.99%

Q: And the viability, T/C (second compound 10 µM, first compound 3.16 µM)?
A: 3.49%

Q: And the viability, T/C (second compound 10 µM, first compound 10 µM)?
A: 3.4%

Q: `Cn1cnc2c(F)c(Nc3ccc(Br)cc3Cl)c(C(=O)NOCCO)cc21` was tested. Which viability, T/C (compound 0.00949 µM) did it give?
A: 54.9% and 51.1%

Q: What about the viability, T/C (compound 0.03 µM) of the same molecule?
A: 47.6% and 37.5%

Q: And the viability, T/C (compound 0.0949 µM)?
A: 49.2% and 43%

Q: What about the viability, T/C (compound 0.3 µM) of the same molecule?
A: 58.2% and 42.2%

Q: What about the viability, T/C (compound 0.949 µM) of the same molecule?
A: 37.5% and 27.2%

Q: And the viability, T/C (compound 3 µM)?
A: 12.6% and 11.1%
